Measurements from patent US9771406B2, “Peptidic dual GLP-1/glucagon receptor agonists derived from exendin-4” (priority 2014, dated 2017).

Tests used:
[1] = Stability testing in solution, 7 days at 40° C. (% remaining peptide, HPLC-UV); type: physicochemical; conditions: buffer, 168 h
Description: After that time course, the sample was centrifuged for 20 min at 4500 rpm and 0.2 μL of the supernatant were analysed with HPLC-UV.
For determination of the amount of the remaining peptide, the peak areas of the target compound at t0 and t7 were compared, resulting in “% remaining peptide”, following the equation % remaining peptide=[(peak area peptide t7)×100]/peak area peptide t0.
The stability is expressed as “% remaining peptide”.

[2] = target: T1, human glucagon receptor (Homo sapiens, UniProt P47871); experiment: cAMP response of HEK-293 cells stably expressing human glucagon receptor (HTRF); type: cell-based; conditions: Table 6; cAMP formation; read-out: EC50 hGlucagon-R
T1 construct: expressed in transfected cells; host or cells: HEK-293
T1 sequence (P47871 26-477): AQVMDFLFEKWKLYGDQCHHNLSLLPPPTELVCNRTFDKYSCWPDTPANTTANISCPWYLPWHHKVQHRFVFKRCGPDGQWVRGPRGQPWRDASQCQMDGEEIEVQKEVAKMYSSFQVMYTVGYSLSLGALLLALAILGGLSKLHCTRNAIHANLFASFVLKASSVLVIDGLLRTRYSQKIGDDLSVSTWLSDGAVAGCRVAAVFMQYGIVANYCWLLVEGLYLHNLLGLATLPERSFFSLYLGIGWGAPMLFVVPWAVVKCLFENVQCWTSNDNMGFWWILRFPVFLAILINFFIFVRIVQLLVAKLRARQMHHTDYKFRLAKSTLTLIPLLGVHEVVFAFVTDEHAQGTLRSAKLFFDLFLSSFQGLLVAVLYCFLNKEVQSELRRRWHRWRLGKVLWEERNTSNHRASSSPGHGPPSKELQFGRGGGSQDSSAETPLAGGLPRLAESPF
Description: (§1) cAMP content of cells was determined using a kit from Cisbio Corp. (cat. no. 62AM4PEC) based on HTRF (Homogenous Time Resolved Fluorescence). For preparation, cells were split into T175 culture flasks and grown overnight to near confluency in medium (DMEM/10% FBS). Medium was then removed and cells washed with PBS lacking calcium and magnesium, followed by proteinase treatment with accutase (Sigma-Aldrich cat. no. A6964). Detached cells were washed and resuspended in assay buffer (1×HBSS; 20 mM HEPES, 0.1% BSA, 2 mM IBMX) and cellular density determined. They were then diluted to 400000 cells/ml and 25 μl-aliquots dispensed into the wells of 96-well plates. For measurement, 25 μl of test compound in assay buffer was added to the wells, followed by incubation for 30 minutes at room temperature.
(§2) Potencies of peptidic compounds at the GLP-1, glucagon and GIP receptors were determined by exposing cells expressing human glucagon receptor (hGCG R), human GIP (hGIP R) and human GLP-1 receptor (hGLP-1 R) to the listed compounds at increasing concentrations and measuring the formed cAMP as described in Methods.

[3] = target: T2, human GIP receptor (Homo sapiens, UniProt P48546); experiment: cAMP response of HEK-293 cells stably expressing human GIP receptor (HTRF); type: cell-based; conditions: Table 6; cAMP formation; read-out: EC50 hGIP-R
T2 construct: expressed in transfected cells; host or cells: HEK-293
T2 sequence (P48546 22-466): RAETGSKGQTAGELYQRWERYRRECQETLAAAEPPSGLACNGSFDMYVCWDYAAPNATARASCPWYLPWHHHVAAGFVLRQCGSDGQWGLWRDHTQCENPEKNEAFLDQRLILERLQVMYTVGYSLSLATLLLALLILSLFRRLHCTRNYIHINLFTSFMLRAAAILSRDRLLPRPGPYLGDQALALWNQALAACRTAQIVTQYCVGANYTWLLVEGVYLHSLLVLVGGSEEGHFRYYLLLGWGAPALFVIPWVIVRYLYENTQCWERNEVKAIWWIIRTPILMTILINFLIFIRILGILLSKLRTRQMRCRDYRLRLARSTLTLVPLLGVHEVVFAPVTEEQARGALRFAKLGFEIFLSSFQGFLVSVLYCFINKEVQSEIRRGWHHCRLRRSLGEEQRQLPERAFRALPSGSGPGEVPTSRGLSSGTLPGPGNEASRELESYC
Description: as §1, §2

[4] = Pharmacokinetic testing in mice (plasma LC/MS); conditions: mouse, in vivo, sc, 1 mg/kg
Description: Mice are dosed 1 mg/kg subcutaneously (s.c.). The mice are sacrificed and blood samples are collected after 0.25, 0.5, 1, 2, 4, 8, 16 and 24 hours post application. Plasma samples are analyzed after protein precipitation via liquid chromatography mass spectrometry (LC/MS). PK parameters and half-life were calculated using WinonLin Version 5.2.1 (non-compartment model).
Pharmacokinetic profiles were determined as described in Methods.

[5] = Solubility testing of exendin-4 derivatives (HPLC-UV of supernatant); type: physicochemical
Description: Prior to the testing of solubility and stability of a peptide batch, its purity (HPLC-UV) was determined. […] Therefore, solutions from solid samples were prepared in different buffer systems with a concentration of 10 mg/mL compound based on the previously determined % purity. HPLC-UV was performed after 2 h of gentle agitation from the supernatant, which was obtained by 20 min of centrifugation at 4500 rpm. […] This analysis also served as starting point (t0) for the stability testing.

[6] = target: T3, human GLP-1 receptor (Homo sapiens, UniProt P43220); experiment: cAMP response of HEK-293 cells stably expressing human GLP-1 receptor (HTRF); type: cell-based; conditions: Table 6; cAMP formation; read-out: EC50 hGLP-1R
T3 construct: expressed in transfected cells; host or cells: HEK-293
T3 sequence (P43220 24-463): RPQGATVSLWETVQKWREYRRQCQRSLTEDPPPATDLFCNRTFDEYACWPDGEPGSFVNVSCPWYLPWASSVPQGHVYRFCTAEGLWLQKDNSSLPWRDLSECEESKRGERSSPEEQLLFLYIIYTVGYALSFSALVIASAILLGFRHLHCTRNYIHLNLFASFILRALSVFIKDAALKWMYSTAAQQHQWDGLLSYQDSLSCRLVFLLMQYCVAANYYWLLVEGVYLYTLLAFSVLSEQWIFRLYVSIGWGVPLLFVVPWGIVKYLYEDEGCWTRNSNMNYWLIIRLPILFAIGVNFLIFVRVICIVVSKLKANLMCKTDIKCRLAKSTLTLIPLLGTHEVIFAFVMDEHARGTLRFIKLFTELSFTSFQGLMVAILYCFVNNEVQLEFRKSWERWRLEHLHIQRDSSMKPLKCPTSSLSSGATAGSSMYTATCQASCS
Description: as §1, §2

Row | SMILES | Stability (pH 4.5), % remaining peptide [1] [%] | Stability (pH 7.4), % remaining peptide [1] [%] | EC50 [2] [pM] | EC50 [3] [pM] | Cmax [4] [ng/mL] | half-life [4] [h] | solubility at 2 h ([5]; pH 4.5) [µg/mL] | solubility at 2 h ([5]; pH 7.4) [µg/mL] | EC50 [6] [pM]
1 | CCCCCCCCCCCCCCCC(=O)N[C@@H](CCC(=O)N[C@@H](CCC(=O)NCCCC[C@H](NC(=O)[C@H](CCC(N)=O)NC(=O)[C@H](CCCCN)NC(=O)[C@H](CO)NC(=O)[C@H](CC(C)C)NC(=O)[C@H](CC(=O)O)NC(=O)[C@H](CO)NC(=O)[C@@H](NC(=O)[C@H](Cc1ccccc1)NC(=O)[C@@H](NC(=O)CNC(=O)[C@H](Cc1c[nH]cn1)NC(=O)C(C)(C)NC(=O)[C@@H](N)Cc1c[nH]cn1)[C@@H](C)O)[C@@H](C)O)C(=O)N[C@@H](CCC(=O)O)C(=O)N[C@@H](CCC(=O)O)C(=O)N[C@@H](CCC(=O)O)C(=O)N[C@@H](C)C(=O)N[C@H](C(=O)N[C@@H](CCCNC(=N)N)C(=O)N[C@@H](CC(C)C)C(=O)N[C@@H](Cc1ccccc1)C(=O)N[C@H](C(=O)N[C@@H](CCC(=O)O)C(=O)N[C@@H](Cc1c[nH]c2ccccc12)C(=O)N[C@@H](CC(C)C)C(=O)N[C@@H](CCCCN)C(=O)N[C@@H](C)C(=O)NCC(=O)NCC(=O)N1CCC[C@H]1C(=O)N[C@@H](CO)C(=O)N[C@@H](CO)C(=O)NCC(=O)N[C@@H](C)C(=O)N1CCC[C@H]1C(=O)N1CCC[C@H]1C(=O)N1CCC[C@H]1C(=O)N[C@@H](CO)C(N)=O)[C@@H](C)CC)C(C)C)C(=O)O)C(=O)O [compound 11] | 97.5 | 95.8 | 8.9 | 7.9 | 3510 | 3.3 | > 5000 | > 5000 | 
2 | CCCCCCCCCCCCCCCC(=O)N[C@@H](CCC(=O)NCCCC[C@H](NC(=O)[C@H](CCC(N)=O)NC(=O)[C@H](CCCCN)NC(=O)[C@H](CO)NC(=O)[C@H](CC(C)C)NC(=O)[C@H](CC(=O)O)NC(=O)[C@H](CO)NC(=O)[C@@H](NC(=O)[C@H](Cc1ccccc1)NC(=O)[C@@H](NC(=O)CNC(=O)[C@H](Cc1c[nH]cn1)NC(=O)C(C)(C)NC(=O)[C@@H](N)Cc1c[nH]cn1)[C@@H](C)O)[C@@H](C)O)C(=O)N[C@@H](CCC(=O)O)C(=O)N[C@@H](CCC(=O)O)C(=O)N[C@@H](CCC(=O)O)C(=O)N[C@@H](C)C(=O)N[C@H](C(=O)N[C@@H](CCCNC(=N)N)C(=O)N[C@@H](CC(C)C)C(=O)N[C@@H](Cc1ccccc1)C(=O)N[C@H](C(=O)N[C@@H](CCC(=O)O)C(=O)N[C@@H](Cc1c[nH]c2ccccc12)C(=O)N[C@@H](CC(C)C)C(=O)N[C@@H](CCCCN)C(=O)N[C@@H](C)C(=O)NCC(=O)NCC(=O)N1CCC[C@H]1C(=O)N[C@@H](CO)C(=O)N[C@@H](CO)C(=O)NCC(=O)N[C@@H](C)C(=O)N1CCC[C@H]1C(=O)N1CCC[C@H]1C(=O)N1CCC[C@H]1C(=O)N[C@@H](CO)C(N)=O)[C@@H](C)CC)C(C)C)C(=O)O [compound 12] | 96.7 | 92.0 | 12.8 | 8.8 |  |  | > 5000 | > 5000 | 3.3
3 | CCCCCCCCCCCCCCCCCC(=O)N[C@@H](CCC(=O)NCCCC[C@H](NC(=O)[C@H](CCC(N)=O)NC(=O)[C@H](CCCCN)NC(=O)[C@H](CO)NC(=O)[C@H](CC(C)C)NC(=O)[C@H](CC(=O)O)NC(=O)[C@H](CO)NC(=O)[C@@H](NC(=O)[C@H](Cc1ccccc1)NC(=O)[C@@H](NC(=O)CNC(=O)[C@H](Cc1c[nH]cn1)NC(=O)[C@@H](CO)NC(=O)[C@@H](N)Cc1c[nH]cn1)[C@@H](C)O)[C@@H](C)O)C(=O)N[C@@H](CCC(=O)O)C(=O)N[C@@H](CCC(=O)O)C(=O)N[C@@H](CCC(=O)O)C(=O)N[C@@H](C)C(=O)N[C@H](C(=O)N[C@@H](CCCNC(=N)N)C(=O)N[C@@H](CC(C)C)C(=O)N[C@@H](Cc1ccccc1)C(=O)N[C@H](C(=O)N[C@@H](CCC(=O)O)C(=O)N[C@@H](Cc1c[nH]c2ccccc12)C(=O)N[C@@H](CC(C)C)C(=O)N[C@@H](CCCCN)C(=O)N[C@@H](C)C(=O)NCC(=O)NCC(=O)N1CCC[C@H]1C(=O)N[C@@H](CO)C(=O)N[C@@H](CO)C(=O)NCC(=O)N[C@@H](C)C(=O)N1CCC[C@H]1C(=O)N1CCC[C@H]1C(=O)N1CCC[C@H]1C(=O)N[C@@H](CO)C(N)=O)[C@@H](C)CC)C(C)C)C(=O)O [compound 25] |  |  | 39.9 | 407 |  |  |  |  | 8.1
